How the values were obtained:
Type in all cases: cell-based
Candida albicans [1] = test: Growth inhibition of Candida albicans in LB broth (optical density / visible growth); settings: for OD550 24 hrs / OD550 7 days / OD550 at 24 Hrs: 10^4 cells; for OD550 at 24 Hrs: LB broth
Method: In the following examples, an MTR kinase-dependent microorganism is treated in vitro with compounds of this invention. In the following examples, LB is a growth medium (Luria-Bertani) containing, per liter, 10 grams Bacto-tryptone, 5 grams Bacto-yeast extract and 10 grams NaCl. OD₅₅₀ is a measure of the optical density of the suspension at the indicated time. Low optical density indicates a low cell concentration in the suspension and thus that compounds were effective to inhibit the growth of the microorganisms.

Candida albicans [2] = test: Colony count of Candida albicans after incubation with ETR (cytocidal vs cytostatic); settings: for Total # Organisms: colonies x dilution factor 200; for Colonies: 10^3 orgs, 100 l of 1:10 dilution plated
From the text: In this example, samples containing a known number of microorganisms were colonized without ETR and in the presence of ETR. In the instances where growth occurred, one colony formed for each microorganism.

mouse marrow = test: CFU-GM assay, toxicity toward mouse marrow
From the text: In the following examples, human bone marrow and mouse marrow cells were subjected to ethylthioribose. In each case, a preparation of immature blood cells from bone marrow were conventionally stimulated to mature in a gel matrix. Immature human granulocytic precursor (CFU-GM) cells formed a colony in the matrix and the number of cells in the colony was counted. Such tests are believed to be a good measure of the toxicity of the subject compounds to humans.

[3] = system: Giardia lamblia (Portland 1 strain); test: Inhibition of Giardia lamblia culture (cell number by hemacytometer)
Method: • a. Procedure. Giardia lamblia was cultured in Diamond's TP-S-1 medium supplemented with 10% heat-inactivated calf serum and antibiotics (penicillin and streptomycin). The antibiotics were added to prevent contamination by bacteria. Tube cultures containing 7 mls of medium were seeded with 5 x 10⁴ organisms per ml and incubated horizontally at 37°C for 48 hrs. ETR was added at the beginning of the experiment. Cell number was determined with the aid of a hemacytometer. • b. Results. [formula]

Plasmodium falciparum = Plasmodium falciparum in vitro erythrocyte culture, Giemsa-stained thin smears
Method: • a. Procedure. Parasitized erythrocytes from a stock four-day-old culture at approximately 10% infection were mixed with washed clean erythrocytes to give a final parasitemia of approximately 1%. Using 1.2 cm plastic Petri dishes duplicate 1 ml cultures were initiated with drug dilutions in complete RPMI-1640, containing 0.1 ml of erythrocytes and 50 ug of gentamycin/ml. The cultures were supplemented with RPMI-1640 (25 mM HEPES), 0.24% sodium bicarbonate and 10% human serum (Type A⁻). All cultures were gassed with 90% nitrogen, 5% carbon dioxide and 5% oxygen prior to incubation at 37°C. Parasite growth was assessed by microscopic evaluation of Giemsa-stained thin-smears. • b. Results. [formula]

[4] = system: Ochromonas malhamensis (ATCC #11532); test: Toxicity to Ochromonas malhamensis culture (cell number by hemacytometer); settings: Poterioochromonas malhamensis, ATCC11532; 48 hours of incubation; thioglycolate broth; 4x10^4 cells per ml; read-out: ID50 (the source's name)
Method: • a. Procedure. 2 ml cultures of O. malhamensis were set up at a cell density of 4x10⁴ per ml. The culture medium used was thioglycolate broth and incubation took place at ambient temperature near a south-facing window (these organisms are photosynthetic). ETR was added at the appropriate dilution at the beginning of the experiment. Cell number was determined using a hemacytometer. The data (shown below) were obtained after 48 hours of incubation. • b. Results. [formula]

With `OC1O[C@H](CCl)[C@@H](O)[C@H]1O` (some centres unmarked) [5-Chloro-5-Deoxyribose, 5-deoxy-5-chlororibose] the “OD550 24 hrs” value (Candida albicans [1]; 0.2 of 10mM stock + LB 1.8) was 0.0, the “OD550 7 days” value (Candida albicans [1]; 0.2 of 10mM stock + LB 1.8) was 0.0 and the “OD550 24 hrs” value (Candida albicans [1]; 0.4 of 10mM stock + LB 1.6) was 0.0. For the same compound, the “OD550 7 days” value (Candida albicans [1]; 0.4 of 10mM stock + LB 1.6) was 0.0, the “OD550 24 hrs” value (Candida albicans [1]; 0.8 of 10mM stock + LB 1.2) was 0.0 and the “OD550 7 days” value (Candida albicans [1]; 0.8 of 10mM stock + LB 1.2) was 0.0. The “killing of Candida albicans” value (Candida albicans [1]; conclusion of Example 20) was “effective to kill”.
In the case of `CCSC[C@H]1OC(O)[C@H](O)[C@@H]1O` (some centres unmarked) [ETR, 5-ethylthio-5-deoxyribose], the “Total # Organisms” value (Candida albicans [2]; 3 hrs (+ETR) 4mM) is reported as 400, the Colonies (Candida albicans [2]; 3 hrs incubation with ETR 0.5ml (4mM)) is reported as 2 and the “Total # Organisms” value (Candida albicans [2]; 5 hrs (w/ETR) 4mM) is reported as 0. For the same compound, the Colonies (Candida albicans [2]; 5 hrs incubation with ETR 1.5ml (4mM)) was 0, the “cytocidal as opposed to cytostatic” value (Candida albicans [2]; conclusion of Example 19) was “cytocidal” and the “colonies formed in the presence of ETR” value (Candida albicans [2]; summary statement of Example 19) was “less than 1,000 colonies”. The CFU-GM (mouse marrow; ETR 100 (1:1)) was 34 --, the CFU-GM (mouse marrow; ETR 100 (1:1k), duplicate counts) was 36,37 and the CFU-GM (mouse marrow; ETR 100 (1:2), duplicate counts) was 37,33. The CFU-GM (mouse marrow; ETR 100 (1:4), duplicate counts) was 32,34, the CFU-GM (mouse marrow; ETR 100 (1:10), duplicate counts) was 36,34 and the CFU-GM (mouse marrow; ETR 100 (1:10k), duplicate counts) was 35,32. The CFU-GM (mouse marrow; ETR 100 (1:20k), duplicate counts) was 32,34, the CFU-GM (mouse marrow; ETR 100 (1:40), duplicate counts) was 33,35 and the CFU-GM (mouse marrow; ETR 100 (1:50), duplicate counts) was 37,36. The CFU-GM (mouse marrow; ETR 100 (1:100)) was 39 --, the CFU-GM (mouse marrow; ETR 100 (1:100k), duplicate counts) was 33,35 and the CFU-GM (mouse marrow; ETR 100 (stock), duplicate counts) was 35,36. The IC50 ([3]; Giardia duodenalis, 48 hrs at 37°C, 5 x 10^4 organisms per ml, read-out: ID50 (the source's name)) was roughly 450 µM, the “cell death and lack of "swimming"” value ([3]; concentrations ranging from 0.62mM to 5mM) was “significant cell death and lack of "swimming"” and the “OD550 at 24 Hrs” value (Candida albicans [1]; ETR 0.092mM) was 0.409. For the same compound, the “OD550 at 24 Hrs” value (Candida albicans [1]; ETR 0.23mM) was 0.355, the “OD550 at 24 Hrs” value (Candida albicans [1]; ETR 0.46mM) was 0.357 and the “OD550 at 24 Hrs” value (Candida albicans [1]; ETR 0.9mM) was 0.120. For the same compound, the “OD550 at 24 Hrs” value (Candida albicans [1]; ETR 2.3mM) was 0.0, the “OD550 at 24 Hrs” value (Candida albicans [1]; ETR 4.6mM) was 0.0 and the “OD550 at 24 Hrs” value (Candida albicans [1]; ETR 9.2mM) was 0.0. The “growth of Candida albicans” value (Candida albicans [1]; conclusion of Examples 17 and 18) was “clearly inhibits the growth”, the parasitemia (Plasmodium falciparum; 24 hours, 1mM ETR) was “remained at or below the level of the initial inoculum” and the parasite growth (Plasmodium falciparum; 24 hours, 1 mM ETR (lowest concentration tested)) was “a small increase in growth was noted but the parasites appeared abnormal”. The parasitemia (Plasmodium falciparum; 24 hours, 5mM ETR) was “remained at or below the level of the initial inoculum”, the parasitemia (Plasmodium falciparum; 48 hours, 1 mM ETR (lowest concentration tested), initial seeding <1.0%) was “less than 0.1%” and the infection (Plasmodium falciparum; 72 hours, 1 mM ETR (lowest concentration tested)) was “less than 1 parasite per 10,000 red cells”. The culture infection (Plasmodium falciparum; 72 hours, all drug-treated cultures) was “completely negative”, the reappearance of parasitemia (Plasmodium falciparum; after 5 days (the last 3 days without drug)) was “did not reappear” and the “inhibition of P. falciparum in vitro” value (Plasmodium falciparum; overall conclusion) was “inhibitory”. The IC50 [4] was 20 µM.

Reference: patent EP0233031B1, “Methylthioribose analogues, their preparation and use as medicinal agents and biocides” (STATE OF OREGON BY AND THROUGH OREGON STATE BOARD OF HIGHER …, priority 1986, dated 1987)
